The values that follow come from patent US11141371B2, “Extracts of Nannochloropsis sp. and their applications” (Cutech SRL, priority 2014, dated 2021).

The test system of assay [1] is human sebaceous glands (hSGs). The assay can be described thus: Sebum (normalized total lipids) of ex-vivo cultured human sebaceous glands. Format: cell-based. The note with it: 5 μM.
Method: Using micro-scissors and tweezers, hSGs were isolated from the pilosebaceous units of a scalp skin sample. They were seeded in 24-well plates at a density of 8 hSGs/well and then cultivated in 500 μl of modified William E medium. After 24 hours of culture, the viability of the hSGs was assessed by means of resazurine assay. […] The control received modified William E medium, while the samples submitted to experimental treatments received the same medium supplemented with the extracts. The culture medium was renewed every other day.
A further assay concerns IL-1α. The assay can be described thus: IL-1α release by ex-vivo skin stimulated with 2% SDS (ELISA). It counts as cell-based, human. Conditions: 2% SDS stimulus, lenitive treatment 10 μM; Table 7.
Assay [2] concerns ex-vivo cultured human skin. The assay can be described thus: Melanogenesis in ex-vivo human skin culture (melanin content, Fontana-Masson staining). Format: cell-based. How it is done: The adopted culture medium was a modified William-E, and it was renewed at day three of the tissue culture. […] On a daily basis, 4 μl of these extract preparations were applied topically to the cultured skin samples, while the control group received the same quantity of the pure DMSO. After six days of organ culture, histological sections were prepared from the skin samples, and quantitative changes of melanin content were investigated by adopting the Fontana-Masson staining technique. The variation in melanin content was estimated by image analysis of the microphotographs of histological sections of skin.

Method for IL-1α: In order to study the biological activity of the ethanol extract (EtOH) from Nannochloropsis sp. on the inflammatory response of skin to irritation, the experimental protocol hereinafter summarized was adopted: • i. ex-vivo skin samples (7 mm in diameter) were cultivated for 24 hours in 6-well plates (4 skin samples/well) with 2.5 ml/well of modified Williams E medium. The experimental design included the following experimental groups, each comprising 8 skin samples cultivated in 2 wells: • 1. control samples cultivated without receive any stimulus or treatment; • 2. samples stimulated with 2% SDS without subsequent lenitive treatment (negative control); • 3. samples stimulated with 2% SDS and then treated with dexamethasone at 10 μM (positive control). • 4. 2 groups of samples stimulated with 2% SDS and then treated with EtOH extract at 1 and 10 μg/ml respectively; • ii. After 24 hours of culture the culture medium was renewed and the experimental groups 2 to 4 received the irritant stimulus (2% SDS) through topical application of 4 μl of preparation for each skin sample. After 3 hours the stimulus was removed by mean of cotton buds and 4 μl of lenitive treatment was then administered topically to groups 3 to 4. Stimulus treatments were applied in 50% DMSO, while the lenitive treatments were in pure DMSO. • iii.

For `COc1cc(CNC(=O)CCCC/C=C/C(C)C)ccc1O` [Capsaicin], the “Sebum in hSGs as % ratio of the control group value” in assay [1] (another donor (Table 11)) came out at 66.5%; in assay [1] (another donor (Table 12)) it was 91.9%; in assay [1] (another donor (Table 13)), 45.6%.

For the molecule `C[C@@H]1C[C@H]2[C@@H]3CCC4=CC(=O)C=C[C@]4(C)[C@@]3(F)[C@@H](O)C[C@]2(C)[C@@]1(O)C(=O)CO` [Dexam., dexamethasone], in the assay with IL-1α, the IL-1α is 48.6 pg/mL and the “IL-1α release [%], SDS group as reference (100%)” value worked out at 92.2%.

Consider `O=c1cc(CO)occ1O` [KA, Kojic acid], for which the “Melanin content as % ratio of the control group performance” value in assay [2] (0.1%, Table 6) turned out to be 83.2%.

`CC1=C(/C=C/C(C)=C/C=C/C(C)=C/C(=O)O)C(C)(C)CCC1` [Retinoic ac., Retinoic acid]: the “Melanin content as % ratio of the control group performance” value in assay [2] (10 μM, third donor (Table 5)) came to 82.4%; in assay [2] (100 μM, third donor (Table 5)), 88.3%.
